Experimental data from patent US12459926B2, “THRβ receptor agonist compound and preparation method and use thereof” (Terns, Inc., priority 2018, dated 2025).

Experiments:
[1] = molecular target: TRβ LBD (Homo sapiens, UniProt P10828); conditions: ratio of THRα to THRβ binding force
[2] = Pharmacokinetic evaluation in rats after intragastric infusion; assay type: in vivo; conditions: male SD rats, 2 mg/kg single dose, plasma

TRβ LBD, sequence (P10828 217-461 limits assumed, other chains not shown): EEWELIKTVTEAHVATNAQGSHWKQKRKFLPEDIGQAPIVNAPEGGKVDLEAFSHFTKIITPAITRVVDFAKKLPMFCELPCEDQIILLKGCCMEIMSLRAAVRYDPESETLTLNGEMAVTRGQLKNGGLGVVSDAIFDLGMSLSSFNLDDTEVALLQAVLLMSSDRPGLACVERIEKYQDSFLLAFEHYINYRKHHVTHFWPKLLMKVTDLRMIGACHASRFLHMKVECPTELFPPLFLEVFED
TRβ LBD, sequence (P28702 whole entry partner, other chains not shown, the tested form may be a part): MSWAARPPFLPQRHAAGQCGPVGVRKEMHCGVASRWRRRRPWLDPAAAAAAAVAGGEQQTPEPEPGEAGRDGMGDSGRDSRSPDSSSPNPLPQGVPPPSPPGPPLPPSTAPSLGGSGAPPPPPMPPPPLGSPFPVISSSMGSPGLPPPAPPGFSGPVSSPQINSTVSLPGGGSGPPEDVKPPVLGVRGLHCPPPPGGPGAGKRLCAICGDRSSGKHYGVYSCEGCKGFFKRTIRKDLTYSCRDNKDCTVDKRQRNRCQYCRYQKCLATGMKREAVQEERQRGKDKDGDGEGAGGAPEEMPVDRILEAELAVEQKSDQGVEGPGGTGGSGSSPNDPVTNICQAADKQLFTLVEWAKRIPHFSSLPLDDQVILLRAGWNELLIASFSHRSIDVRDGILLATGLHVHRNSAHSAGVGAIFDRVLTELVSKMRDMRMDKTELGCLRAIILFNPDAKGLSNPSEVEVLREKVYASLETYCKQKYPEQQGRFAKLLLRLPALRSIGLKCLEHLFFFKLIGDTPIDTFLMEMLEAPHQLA

| Curve area [2] | Time to peak [2] | half-life ([2]; rat, po) | Structure (SMILES) | THRα/β selectivity (factor) [1] |
| --- | --- | --- | --- | --- |
|  |  |  | N#Cc1nn(-c2cc(Cl)c(Oc3n[nH]c(=O)c4c3CCCC4)c(Cl)c2)c(=O)[nH]c1=O [Embodiment 1, 2-(3,5-dichloro-4-((4-oxo-3,4,5,6,7,8-hexahydrophthalazin-1-yl)oxy)phenyl)-3,5-dioxo-2,3,4,5-tetrahydro-1,2,4-triazine-6-nitrile] | >8.1 factor |
| 9242 ± 1245 ng·h/mL | 5.33 ± 1.15 h | 5.14 ± 0.83 h | CC1(C)CCc2c(Oc3c(Cl)cc(-n4nc(C#N)c(=O)[nH]c4=O)cc3Cl)n[nH]c(=O)c21 [Embodiment 4, 2-(3,5-dichloro-4-((7,7-dimethyl-1-oxo-2,5,6,7-tetrahydro-1H-cyclopenta[d]pyridazin-4-yl)oxy)phenyl)-3,5-dioxo-2,3,4,5-tetrahydro-1,2,4-triazine-6-carbonitrile] |  |
|  |  |  | N#Cc1nn(-c2cc(Cl)c(Oc3n[nH]c(=O)c4ccccc34)c(Cl)c2)c(=O)[nH]c1=O [Embodiment 9, 2-(3,5-dichloro-4-((4-oxo-3,4-dihydrophthalazin-1-yl)oxo)phenyl)-3,5-dioxo-2,3,4,5-tetrahydro-1,2,4-triazine-6-nitrile] | >58.8 factor |
|  |  |  | N#Cc1nn(-c2cc(Cl)c(Oc3n[nH]c(=O)c4c(Cl)cccc34)c(Cl)c2)c(=O)[nH]c1=O [Embodiment 10, 2-(3,5-dichloro-4-((5-chloro-4-oxo-3,4-dihydrophthalazin-1-yl)oxo)phenyl)-3,5-dioxo-2,3,4,5-tetrahydro-1,2,4-triazine-6-nitrile] | >6.80 factor |
